Patent US20200190081A1, “META SUBSTITUTED PHENYLPYRAZOLO- AND PHENYLPYRROLO- PYRIDAZINE DERIVATIVES HAVING MULTIMODAL ACTIVITY AGAINST PAIN” (ESTEVE PHARMACEUTICALS, S.A., priority 2016, published 2020)

Tests used:
[1] = biological target: Human norepinephrine transporter (NET) (Homo sapiens, UniProt P23975); test: Binding assay to human norepinephrine transporter (NET), [3H]-Nisoxetin; conditions: human NET enriched membranes, 5 nM [3H]-Nisoxetin
Protocol: Binding Assay to Human Norepinephrine Transporter (NET).
Human norepinephrine transporter (NET) enriched membranes (5 μg) were incubated with 5 nM of radiolabeled [3H]-Nisoxetin in assay buffer containing 50 mM Tris-HCl, 120 mM NaCl, 5 mM KCl, pH 7.4. NSB (non specific binding) was measured by adding 10 μM of desipramine. The binding of the test compound was measured at five different concentrations. After 60 min incubation at 4° C., binding reaction was terminated by filtering through Multiscreen GF/C (Millipore) presoaked in 0.5% polyethyleneimine in Vacuum Manifold Station, followed by 3 washes with ice-cold filtration buffer containing 50 mM Tris-HCl, 0.9% NaCl, pH 7.4. Filter plates were dried at 60° C. for 1 hour and 30 μl of scintillation cocktail were added to each well before radioactivity reading. Readings were performed in a Trilux 1450 Microbeta radioactive counter (Perkin Elmer).

[2] = biological target: Human α2δ-1 Subunit of Cav2.2 Calcium Channel (Homo sapiens, UniProt P54289); test: Human α2δ-1 subunit of Cav2.2 calcium channel assay, [3H]-Gabapentin binding; conditions: human α2δ-1 enriched membranes, 15 nM [3H]-Gabapentin
Chain of Human α2δ-1 Subunit of Cav2.2 Calcium Channel (P54289 25-1103): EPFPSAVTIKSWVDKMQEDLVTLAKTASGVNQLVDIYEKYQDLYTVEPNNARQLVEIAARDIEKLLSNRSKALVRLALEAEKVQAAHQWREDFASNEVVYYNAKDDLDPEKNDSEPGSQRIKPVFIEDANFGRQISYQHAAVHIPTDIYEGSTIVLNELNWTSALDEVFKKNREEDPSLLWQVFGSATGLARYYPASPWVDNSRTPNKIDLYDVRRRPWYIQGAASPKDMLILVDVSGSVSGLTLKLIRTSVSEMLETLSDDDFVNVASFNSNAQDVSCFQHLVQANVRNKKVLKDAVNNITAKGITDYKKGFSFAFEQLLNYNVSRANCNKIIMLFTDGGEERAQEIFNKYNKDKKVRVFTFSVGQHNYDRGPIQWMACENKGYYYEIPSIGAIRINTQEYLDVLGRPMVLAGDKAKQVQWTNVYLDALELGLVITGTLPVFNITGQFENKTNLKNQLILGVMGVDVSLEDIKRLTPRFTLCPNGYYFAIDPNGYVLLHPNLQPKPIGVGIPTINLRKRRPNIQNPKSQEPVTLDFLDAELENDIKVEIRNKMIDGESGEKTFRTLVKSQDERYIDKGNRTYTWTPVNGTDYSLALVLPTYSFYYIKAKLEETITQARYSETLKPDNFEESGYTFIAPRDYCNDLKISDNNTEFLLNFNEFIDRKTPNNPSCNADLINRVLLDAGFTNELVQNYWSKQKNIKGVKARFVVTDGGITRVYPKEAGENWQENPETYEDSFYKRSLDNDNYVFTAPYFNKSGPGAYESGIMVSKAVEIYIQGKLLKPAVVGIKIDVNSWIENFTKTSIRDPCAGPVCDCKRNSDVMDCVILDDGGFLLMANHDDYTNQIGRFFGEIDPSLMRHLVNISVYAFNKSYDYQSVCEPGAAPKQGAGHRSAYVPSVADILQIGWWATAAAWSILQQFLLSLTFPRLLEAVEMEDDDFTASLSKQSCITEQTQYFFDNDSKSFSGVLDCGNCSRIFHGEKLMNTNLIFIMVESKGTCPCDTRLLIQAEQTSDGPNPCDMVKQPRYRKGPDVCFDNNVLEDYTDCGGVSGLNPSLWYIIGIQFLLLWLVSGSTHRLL
Protocol: Human α2δ-1 Subunit of Cav2.2 Calcium Channel Assay
Human α2δ-1 enriched membranes (2.5 μg) were incubated with 15 nM of radiolabeled [3H]-Gabapentin in assay buffer containing Hepes-KOH 10 mM, pH 7.4. NSB (non specific binding) was measured by adding 10 μM pregabalin. The binding of the test compound was measured at five different concentrations. After 60 min incubation at 27° C., binding reaction was terminated by filtering through Multiscreen GF/C (Millipore) presoaked in 0.5% polyethyleneimine in Vacuum Manifold Station, followed by 3 washes with ice-cold filtration buffer containing 50 mM Tris-HCl, pH 7.4. Filter plates were dried at 60° C. for 1 hour and 30 μl of scintillation cocktail were added to each well before radioactivity reading. Readings were performed in a Trilux 1450 Microbeta radioactive counter (Perkin Elmer).

Chain of Human norepinephrine transporter (NET) (P23975 whole entry): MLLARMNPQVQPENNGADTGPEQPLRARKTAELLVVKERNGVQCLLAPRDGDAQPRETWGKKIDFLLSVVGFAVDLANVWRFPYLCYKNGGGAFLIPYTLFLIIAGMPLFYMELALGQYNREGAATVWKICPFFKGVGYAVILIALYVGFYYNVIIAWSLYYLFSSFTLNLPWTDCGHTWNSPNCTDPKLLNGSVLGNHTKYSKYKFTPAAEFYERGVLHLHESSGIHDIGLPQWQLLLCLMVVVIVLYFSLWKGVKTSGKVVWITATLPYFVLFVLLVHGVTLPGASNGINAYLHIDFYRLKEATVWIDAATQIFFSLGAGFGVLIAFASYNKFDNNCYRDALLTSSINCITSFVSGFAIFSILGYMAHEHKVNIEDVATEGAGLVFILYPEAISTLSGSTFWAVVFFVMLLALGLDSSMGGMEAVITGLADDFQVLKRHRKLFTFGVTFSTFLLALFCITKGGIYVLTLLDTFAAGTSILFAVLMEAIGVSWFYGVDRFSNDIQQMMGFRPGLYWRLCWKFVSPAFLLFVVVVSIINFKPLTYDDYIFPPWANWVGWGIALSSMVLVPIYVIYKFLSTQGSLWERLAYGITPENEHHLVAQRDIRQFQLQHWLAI

Compound | Ki [1] | Ki [2]
CNCCC(Oc1cccc(-n2nc3c(N(C)CCO)nnc(C)c3c2C)c1)c1ccccc1F (centres unmarked) [Example 31, 2-((2-(3-(1-(2-fluorophenyl)-3-(methylamino)propoxy)phenyl)-3,4-dimethyl-2H-pyrazolo[3,4-d]pyridazin-7-yl)(methyl)amino)ethanol] | < 100 nM | 500 to 5000 nM
CNCCC(Oc1cccc(-n2nc3c(NC)nnc(C)c3c2C)c1)c1ccccc1 (centres unmarked) [Example 25, N,3,4-trimethyl-2-(3-(3-(methylamino)-1-phenylpropoxy)phenyl)-2H-pyrazolo[3,4-d]pyridazin-7-amine] | 100 to 500 nM | 500 to 5000 nM
CNCCC(Oc1cccc(-n2nc3c(N(C)C)nnc(C)c3c2C)c1)c1ccccc1F (centres unmarked) [Example 30, 2-(3-(1-(2-Fluorophenyl)-3-(methylamino)propoxy)phenyl)-N,N,3,4-tetramethyl-2H-pyrazolo[3,4-d]pyridazin-7-amine] | < 100 nM | 500 to 5000 nM
CNCCC(Oc1cccc(-n2nc3c(N)nnc(C)c3c2C)c1)c1ccccc1F (centres unmarked) [Example 26, 2-(3-(1-(2-fluorophenyl)-3-(methylamino)propoxy)phenyl)-3,4-dimethyl-2H-pyrazolo[3,4-d]pyridazin-7-amine] | 100 to 500 nM | 500 to 5000 nM
CNCCC(Oc1cccc(-n2nc3c(N)nnc(C)c3c2C)c1)c1ccccc1 (centres unmarked) [Example 27, 3,4-dimethyl-2-(3-(3-(methylamino)-1-phenylpropoxy)phenyl)-2H-pyrazolo[3,4-d]pyridazin-7-amine] | < 100 nM | 500 to 5000 nM
Cc1nnc(N(C)C)c2nn(-c3cccc(OCC4CCNCC4)c3)c(C)c12 [Example 29, N,N,3,4-tetramethyl-2-(3-(piperidin-4-ylmethoxy)phenyl)-2H-pyrazolo[3,4-d]pyridazin-7-amine] | ≥ 1000 nM | ≥ 5000 nM
CNCC(Oc1cccc(-n2nc3c(N(C)C)nnc(C)c3c2C)c1)c1ccccc1 (centres unmarked) [Example 35, N,N,3,4-tetramethyl-2-(3-(2-(methylamino)-1-phenylethoxy)phenyl)-2H-pyrazolo[3,4-d]pyridazin-7-amine] | < 100 nM | 500 to 5000 nM
CNCCC(Oc1cccc(-n2nc3c(N(C)C)nnc(C)c3c2C)c1)c1ccc(F)cc1 (centres unmarked) [Example 8, 2-(3-(1-(4-fluorophenyl)-3-(methylamino)propoxy)phenyl)-N,N,3,4-tetramethyl-2H-pyrazolo[3,4-d]pyridazin-7-amine] | < 100 nM | 500 to 5000 nM
Cc1nnc(N(C)C)c2nn(-c3cccc(OC(CCN)c4ccccc4)c3)c(C)c12 (centres unmarked) [Example 4, 2-(3-(3-amino-1-phenylpropoxy)phenyl)-N,N,3,4-tetramethyl-2H-pyrazolo[3,4-d]pyridazin-7-amine] | 100 to 500 nM | 500 to 5000 nM
Cc1nnc(N(C)C)c2nn(-c3cccc(OC(CCN)c4ccc(F)cc4)c3)c(C)c12 (centres unmarked) [Example 20, 2-(3-(3-amino-1-(4-fluorophenyl)propoxy)phenyl)-N,N,3,4-tetramethyl-2H-pyrazolo[3,4-d]pyridazin-7-amine] | 100 to 500 nM | 500 to 5000 nM
Cc1nnc(N(C)C)c2nn(-c3cccc(O[C@@H](c4ccccc4)[C@@H]4CNCCO4)c3)c(C)c12 (racemic) [Example 13, N,N,3,4-tetramethyl-2-(3-((S)-((S)-morpholin-2-yl)(phenyl)methoxy)phenyl)-2H-pyrazolo[3,4-d]pyridazin-7-amine] | 500 to 1000 nM | 500 to 5000 nM
CCNCCC(Oc1cccc(-n2nc3c(N(C)C)nnc(C)c3c2C)c1)c1ccccc1 (centres unmarked) [Example 3, 2-(3-(3-(ethylamino)-1-phenylpropoxy)phenyl)-N,N,3,4-tetramethyl-2H-pyrazolo[3,4-d]pyridazin-7-amine] | 100 to 500 nM | 500 to 5000 nM
CNCCC(Oc1cccc(-n2nc3c(N(C)C)nnc(C)c3c2C)c1)c1ccccn1 (centres unmarked) [Example 9, N,N,3,4-tetramethyl-2-(3-(3-(methylamino)-1-(pyridin-2-yl)propoxy)phenyl)-2H-pyrazolo[3,4-d]pyridazin-7-amine] | 100 to 500 nM | 500 to 5000 nM
CNCCC(Oc1cccc(-n2nc3c(N(C)C)nnc(C)c3c2C)c1)c1nccs1 (centres unmarked) [Example 34, N,N,3,4-Tetramethyl-2-(3-(3-(methylamino)-1-(thiazol-2-yl)propoxy)phenyl)-2H-pyrazolo[3,4-d]pyridazin-7-amine] | ≥ 1000 nM | < 500 nM
CNCC[C@H](Oc1cccc(-n2c(C)c3c(C)nnc(C)c3c2C)c1)c1cccc(F)c1 [Example 68, (S)-3-(3-Fluorophenyl)-N-methyl-3-(3-(1,4,5,7-tetramethyl-6H-pyrrolo[3,4-d]pyridazin-6-yl)phenoxy)propan-1-amine] | 100 to 500 nM | ≥ 5000 nM
CNCC[C@@H](Oc1cccc(-n2nc3c(N(C)C)nnc(C)c3c2C)c1)c1cccnc1 [Example 65, (R)-N,N,3,4-tetramethyl-2-(3-(3-(methylamino)-1-(pyridin-3-yl)propoxy)phenyl)-2H-pyrazolo[3,4-d]pyridazin-7-amine] | 500 to 1000 nM | 500 to 5000 nM
Cc1nnc(N(C)C)c2nn(-c3cccc(OC(Cc4ccccc4)CN(C)Cc4ccccc4)c3)c(C)c12 (centres unmarked) [Example 44, 2-(3-((1-(benzyl(methyl)amino)-3-phenylpropan-2-yl)oxy)phenyl)-N,N,3,4-tetramethyl-2H-pyrazolo[3,4-d]pyridazin-7-amine] | ≥ 1000 nM | ≥ 5000 nM
CNCCC(Oc1cccc(-n2c(C)c3c(C)nnc(C)c3c2C)c1)c1ccccc1F (centres unmarked) [Example 66, 3-(2-fluorophenyl)-N-methyl-3-(3-(1,4,5,7-tetramethyl-6H-pyrrolo[3,4-d]pyridazin-6-yl)phenoxy)propan-1-amine] | 500 to 1000 nM | 500 to 5000 nM
CNCCC(Oc1cccc(-n2nc3c(N(C)C)nnc(C)c3c2C)c1)c1cccc(F)c1 (centres unmarked) [Example 5, 2-(3-(1-(3-fluorophenyl)-3-(methylamino)propoxy)phenyl)-N,N,3,4-tetramethyl-2H-pyrazolo[3,4-d]pyridazin-7-amine] | < 100 nM | 500 to 5000 nM
CNC(COc1cccc(-n2nc3c(N(C)C)nnc(C)c3c2C)c1)c1ccccc1 (centres unmarked) [Example 15, N,N,3,4-tetramethyl-2-(3-(2-(methylamino)-2-phenylethoxy)phenyl)-2H-pyrazolo[3,4-d]pyridazin-7-amine] | < 100 nM | 500 to 5000 nM
CNCC[C@@H](Oc1cccc(-n2nc3c(N(C)C)nnc(C)c3c2C)c1)c1ccccc1 [Example 59, (R)-N,N,3,4-tetramethyl-2-(3-(3-(methylamino)-1-phenylpropoxy)phenyl)-2H-pyrazolo[3,4-d]pyridazin-7-amine] | 100 to 500 nM | 500 to 5000 nM
CNC1(CC(Oc2cccc(-n3nc4c(N(C)C)nnc(C)c4c3C)c2)c2ccccc2)CC1 (centres unmarked) [Example 49, N,N,3,4-tetramethyl-2-(3-(2-(1-(methylamino)cyclopropyl)-1-phenylethoxy)phenyl)-2H-pyrazolo[3,4-d]pyridazin-7-amine] | < 100 nM | 500 to 5000 nM
Cc1nnc(N(C)C)c2nn(-c3cccc(OCC4CCN(CCc5ccccc5)CC4)c3)c(C)c12 [Example 53, N,N,3,4-Tetramethyl-2-(3-((1-phenethylpiperidin-4-yl)methoxy)phenyl)-2H-pyrazolo[3,4-d]pyridazin-7-amine] | 100 to 500 nM | 500 to 5000 nM
CNCCC(Oc1cccc(-n2nc3c(N(C)C)nnc(C)c3c2C)c1)c1cccc(C#N)c1 (centres unmarked) [Example 11, 3-(1-(3-(7-(dimethylamino)-3,4-dimethyl-2H-pyrazolo[3,4-d]pyridazin-2-yl)phenoxy)-3-(methylamino)propyl)benzonitrile] | < 100 nM | 500 to 5000 nM
CNCC[C@@H](Oc1cccc(-n2c(C)c3c(C)nnc(C)c3c2C)c1)c1cccc(F)c1 [Example 69, (R)-3-(3-fluorophenyl)-N-methyl-3-(3-(1,4,5,7-tetramethyl-6H-pyrrolo[3,4-d]pyridazin-6-yl)phenoxy)propan-1-amine] | 100 to 500 nM | < 500 nM
CNCCC(Oc1cccc(-n2nc3c(N4CC(OC)C4)nnc(C)c3c2C)c1)c1ccccc1F (centres unmarked) [Example 33, 3-(2-fluorophenyl)-3-(3-(7-(3-methoxyazetidin-1-yl)-3,4-dimethyl-2H-pyrazolo[3,4-d]pyridazin-2-yl)phenoxy)-N-methylpropan-1-amine] | 500 to 1000 nM | 500 to 5000 nM
CNC(COc1cccc(-n2nc3c(N(C)C)nnc(C)c3c2C)c1)Cc1ccccc1 (centres unmarked) [Example 47, N,N,3,4-tetramethyl-2-(3-(2-(methylamino)-3-phenylpropoxy)phenyl)-2H-pyrazolo[3,4-d]pyridazin-7-amine] | < 100 nM | < 500 nM
Cc1nnc(N(C)C)c2nn(-c3cccc(O[C@H](c4ccccc4)[C@@H]4CNCCO4)c3)c(C)c12 (racemic) [Example 12, N,N,3,4-tetramethyl-2-(3-((R)-((S)-morpholin-2-yl)(phenyl)methoxy)phenyl)-2H-pyrazolo[3,4-d]pyridazin-7-amine] | 100 to 500 nM | 500 to 5000 nM
